Data as given in patent US7745619B2, “Vinca derivatives” (priority 2003, dated 2010).

Legend:
RPMI-8226 = assay: NCI 60-cell line growth inhibition assay: RPMI-8226; type: cell-based, human
Source text: (§1) The following data in Table 4 summarize the growth inhibition properties of several compounds of the present invention against 60-human transformed cell lines.

OVCAR-8 = assay: NCI 60-cell line growth inhibition assay: OVCAR-8; type: cell-based; conditions: Homo sapiens
SN12C = assay: NCI 60-cell line growth inhibition assay: SN12C; type: cell-based; conditions: Homo sapiens
NCI-H460 = type: cell-based; conditions: Homo sapiens
HS 578T = assay: NCI 60-cell line growth inhibition assay: HS 578T; type: cell-based; conditions: Homo sapiens, Hs-578T
HOP-62 = assay: NCI 60-cell line growth inhibition assay: HOP-62; type: cell-based; conditions: Homo sapiens
HOP-92 = assay: NCI 60-cell line growth inhibition assay: HOP-92; type: cell-based; conditions: Homo sapiens
SF-295 = assay: NCI 60-cell line growth inhibition assay: SF-295; type: cell-based; conditions: Homo sapiens
NCI/ADR-RES = type: cell-based; conditions: Homo sapiens
ACHN = assay: NCI 60-cell line growth inhibition assay: ACHN; type: cell-based; conditions: Homo sapiens
IGROV1 = assay: NCI 60-cell line growth inhibition assay: IGROV1; type: cell-based; conditions: Homo sapiens, IGROV-1, Ovarian
Source text: as §1

UACC-62 = assay: NCI 60-cell line growth inhibition assay: UACC-62; type: cell-based; conditions: Homo sapiens
M14 = assay: NCI 60-cell line growth inhibition assay: M14; type: cell-based; conditions: Homo sapiens
MCF7 = assay: NCI 60-cell line growth inhibition assay: MCF7; type: cell-based; conditions: Homo sapiens
HT29 = assay: NCI 60-cell line growth inhibition assay: HT29; type: cell-based; conditions: Homo sapiens, HT-29
HCC-2998 = assay: NCI 60-cell line growth inhibition assay: HCC-2998; type: cell-based; conditions: Homo sapiens, HCC 2998
SK-OV-3 = assay: NCI 60-cell line growth inhibition assay: SK-OV-3; type: cell-based; conditions: Homo sapiens
COLO 205 = assay: NCI 60-cell line growth inhibition assay: COLO 205; type: cell-based; conditions: Homo sapiens
MCF-7 cells = assay: MCF-7 GI50 determination (crystal violet growth inhibition); type: cell-based, human; conditions: Homo sapiens, MCF7, 96 h, read-out: MCF-7 Cells GI50 (nM)
Procedure, shortened: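 MCF-7 cells seeded at 2×10^4 cells/well, grown 24 h drug-free, then exposed to 10-fold compound dilutions for 4 days. Glutaraldehyde-fixed cells stained with crystal violet, absorbance read at 570 nm; GI=100×(T/T0) against day-0 control OD, GI50 from growth inhibition versus concentration plots.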

SW-620 = assay: NCI 60-cell line growth inhibition assay: SW-620; type: cell-based; conditions: Homo sapiens
HCT-15 = assay: NCI 60-cell line growth inhibition assay: HCT-15; type: cell-based; conditions: Homo sapiens
A549/ATCC = assay: NCI 60-cell line growth inhibition assay: A549/ATCC; type: cell-based; conditions: Homo sapiens, A549
OVCAR-3 = assay: NCI 60-cell line growth inhibition assay: OVCAR-3; type: cell-based; conditions: Homo sapiens
HCT-116 = assay: NCI 60-cell line growth inhibition assay: HCT-116; type: cell-based; conditions: Homo sapiens
LOX IMVI = assay: NCI 60-cell line growth inhibition assay: LOX IMVI; type: cell-based; conditions: Homo sapiens
MDA-MB-435 = assay: NCI 60-cell line growth inhibition assay: MDA-MB-435; type: cell-based; conditions: Homo sapiens
KM12 = assay: NCI 60-cell line growth inhibition assay: KM12; type: cell-based; conditions: Homo sapiens
U251 = assay: NCI 60-cell line growth inhibition assay: U251; type: cell-based; conditions: Homo sapiens, U-251
UACC-257 = assay: NCI 60-cell line growth inhibition assay: UACC-257; type: cell-based; conditions: Homo sapiens
CCRF-CEM = assay: NCI 60-cell line growth inhibition assay: CCRF-CEM; type: cell-based; conditions: Homo sapiens, Leukemia
Source text: as §1

CAKI-1 = assay: NCI 60-cell line growth inhibition assay: CAKI-1; type: cell-based; conditions: Homo sapiens
TK-10 = assay: NCI 60-cell line growth inhibition assay: TK-10; type: cell-based; conditions: Homo sapiens
MDA-MB-231/ATCC = assay: NCI 60-cell line growth inhibition assay: MDA-MB-231/ATCC; type: cell-based; conditions: Homo sapiens, MDA-MB-231
786-0 = assay: NCI 60-cell line growth inhibition assay: 786-0; type: cell-based; conditions: Homo sapiens
PC-3 = assay: NCI 60-cell line growth inhibition assay: PC-3; type: cell-based; conditions: Homo sapiens
SF-268 = assay: NCI 60-cell line growth inhibition assay: SF-268; type: cell-based; conditions: Homo sapiens, CNS
Source text: as §1

[1] = Homo sapiens, Leukemia, RPMI-8226

SMILES	GI50 (RPMI-8226; [1])	GI50 (OVCAR-8)	GI50 (SN12C)	GI50 (NCI-H460)	GI50 (HS 578T)	GI50 (HOP-62)	GI50 (HOP-92)	GI50 (SF-295)	GI50 (NCI/ADR-RES)	GI50 (ACHN)	GI50 (IGROV1)	GI50 (UACC-62)	GI50 (M14)	GI50 (MCF7)	GI50 (HT29)	GI50 (HCC-2998)	GI50 (SK-OV-3)	GI50 (COLO 205)	GI50 (MCF-7 cells)	GI50 (SW-620)	also measured
CCC1=C[C@H]2CN(CCc3c([nH]c4ccc(Br)cc34)[C@@](C(=O)OC)(c3cc4c(cc3OC)N(C)[C@H]3[C@@](O)(C(=O)OC)[C@H](OC(C)=O)[C@]5(CC)C=CCN6CC[C@]43[C@@H]65)C2)C1 [Example 97, 12′-bromoanhydro vinblastine]	< 10 nM	< 10 nM	< 10 nM	< 10 nM	< 10 nM	< 10 nM	12200 nM	< 10 nM	77.9 nM	64.1 nM	< 10 nM	< 10 nM	< 10 nM	< 10 nM	< 10 nM	< 10 nM	< 10 nM	< 10 nM	50 nM	< 10 nM	GI50 (RPMI-8226; Renal, RPMI-8226 (last line of Table 4, repeats the Leukemia line)): < 10 nM; GI50 (HCT-15): < 10 nM; GI50 (A549/ATCC): < 10 nM; GI50 (OVCAR-3): < 10 nM; GI50 (HCT-116): < 10 nM; GI50 (LOX IMVI): < 10 nM; GI50 (MDA-MB-435): < 10 nM; GI50 (KM12): < 10 nM; GI50 (U251): < 10 nM; GI50 (UACC-257): 3950 nM; GI50 (CCRF-CEM): < 10 nM; GI50 (CAKI-1): 589 nM; GI50 (TK-10): < 10 nM; GI50 (MDA-MB-231/ATCC): < 10 nM; GI50 (786-0): < 10 nM; GI50 (PC-3): < 10 nM; GI50 (SF-268): < 10 nM
CCCC(=O)/C=C/c1ccc2[nH]c3c(c2c1)CCN1C[C@H](C[C@@](O)(CC)C1)C[C@]3(C(=O)OC)c1cc2c(cc1OC)N(C)[C@H]1[C@@](O)(C(=O)OC)[C@H](OC(C)=O)[C@]3(CC)C=CCN4CC[C@]21[C@@H]43 [Example 29, 12′-(3-oxohex-1-enyl)vinblastine]	14.1 nM	22.6 nM	< 10 nM	176 nM	628 nM	< 10 nM	9930 nM	568 nM	18100 nM	93.7 nM	1710 nM	< 10 nM	< 10 nM	10.5 nM	< 10 nM	< 10 nM	16.9 nM	< 10 nM	515 nM	1300 nM	GI50 (HCT-15): 274 nM; GI50 (A549/ATCC): 28.7 nM; GI50 (OVCAR-3): 59.7 nM; GI50 (HCT-116): < 10 nM; GI50 (LOX IMVI): < 10 nM; GI50 (MDA-MB-435): 34.3 nM; GI50 (KM12): 212 nM; GI50 (U251): < 10 nM; GI50 (UACC-257): 19300 nM; GI50 (CCRF-CEM): 28.8 nM; GI50 (CAKI-1): 1200 nM; GI50 (TK-10): 3240 nM; GI50 (MDA-MB-231/ATCC): < 10 nM; GI50 (786-0): < 10 nM; GI50 (PC-3): 44.2 nM; GI50 (SF-268): 901 nM
CC[C@]1(O)C[C@H]2CN(CCc3c([nH]c4ccc(C#Cc5ccccc5)cc34)[C@@](C(=O)OC)(c3cc4c(cc3OC)N(C)[C@H]3[C@@](O)(C(=O)OC)[C@H](OC(C)=O)[C@]5(CC)C=CCN6CC[C@]43[C@@H]65)C2)C1 [Example 19, 12′-(2-phenylethynyl) vinblastine]	252 nM	32200 nM	2470 nM	353 nM	1850 nM	571 nM	335 nM	293 nM	1440 nM	22000 nM	2210 nM	2040 nM	260 nM	396 nM	423 nM	182 nM	1880 nM	1190 nM	800 nM	1770 nM	GI50 (HCT-15): 8350 nM; GI50 (A549/ATCC): 37300 nM; GI50 (OVCAR-3): 207 nM; GI50 (HCT-116): 300 nM; GI50 (LOX IMVI): > 100000 nM; GI50 (MDA-MB-435): 60.5 nM; GI50 (KM12): 206 nM; GI50 (U251): 9970 nM; GI50 (UACC-257): 46000 nM; GI50 (CCRF-CEM): 263 nM; GI50 (CAKI-1): 557 nM; GI50 (TK-10): 313 nM; GI50 (MDA-MB-231/ATCC): 2020 nM; GI50 (786-0): 889 nM; GI50 (PC-3): 280 nM; GI50 (SF-268): 731 nM
